Data taken from patent publication US20220339135A1, “COMPOSITIONS AND METHODS FOR MODULATING AN INFLAMMATORY RESPONSE” (Enzychem Lifesciences Corporation, priority 2019, published 2022).

Legend:
[1] = system: intracellular ROS in Raw264.7 cells; test: LPS-induced intracellular ROS production (CM-H2DCFDA); assay type: cell-based; conditions: LPS/PLAG treatment
Protocol: Raw264.7 cells were divided into two groups: 1) LPS treated group and 2) LPS/PLAG treated group. For LPS treated group, cells were stimulated with LPS (100 ng/ml) for 0, 15, 30, 45, 60, 75, 90, 105, 120 minutes. For LPS/PLAG treatment, cells were pre-incubated with PLAG (100 ng/ml) for 1 hour and then stimulated with LPS (100 ng/ml) for 0, 15, 30, 45, 60, 75, 90, 105, 120 minutes. To detect intracellular ROS, cells were treated with […]CM-H2DCFDA (Invitrogen, Carlsbad, Calif., USA) for 30 minutes before LPS treatment for LPS treated group and before PLAG treatment for LPS/PLAG treated group. For confocal microscopy analysis, cells were washed with PBS and mounted in DAPI-containing fluorescence microscopy mounting medium (Invitrogen). Samples were analyzed with a laser scanning confocal microscope (Carl Zeiss, Oberkochen, Germany).
Raw264.7 cells were divided into two groups: 1) LPS treated group and 2) LPS/PLAG treated group. For the LPS treated group, cells were treated with 100 μg/ml of DMSO (as solvent control) for 1 hour and treated with LPS (100 ng/ml) for 15, 30, 60, and 120 minutes. For LPS/PLAG treated group, cells were treated with PLAG (100 μg/ml) for 1 hour and treated with LPS (100 ng/ml) for 15, 30, 60, and 120 minutes. […] These were analyzed by confocal microscopy. […]

[2] = system: ADORA2A on the surface of HaCaT cells; test: IMQ-induced ADORA2A trafficking, confocal microscopy; assay type: cell-based; conditions: IMQ 5 μg/ml after PLAG 100 μg/ml 1 hour
Protocol: HaCaT cells were divided into two groups: 1) IMQ treated group and 2) IMQ/PLAG treated group. For IMQ treated group, cells were stimulated with IMQ (5 μg/ml) for 0, 2.5, 5, 7.5, 10, 15, 30, 60, 120 minutes. For IMQ/PLAG treated group, cells were pre-incubated with PLAG (100 μg/ml) for 1 hour and then stimulated with IMQ (5 μg/ml) for 0, 2.5, 5, 7.5, 10, 15, 30, 60, 120 minutes. (A) To detect ADORA2A on the membrane surface, cells were fixed with 2% paraformaldehyde (Sigma-Aldrich) and were blocked with PBS containing 1% BSA (Gibco, Waltham, Mass., USA). They were incubated with rabbit anti-ADORA2A antibody (Thermo) and Alexa488 conjugated anti-rabbit IgG (Invitrogen) without permeabilization. (B) To detect intracellular ROS, cells were treated with FITC conjugated-CM-H2DCFDA (Invitrogen, Carlsbad, Calif., USA) for 30 min before PLAG treating. For confocal microscopy analysis, cells were washed with PBS and mounted in DAPI-containing fluorescence microscopy mounting medium (Invitrogen). Samples were analyzed with a laser scanning confocal microscope (Carl Zeiss, Oberkochen, Germany).

[3] = system: STZ-induced hepatic steatosis; test: STZ-induced mice model (lipid uptake, hepatic steatosis); assay type: in vivo; conditions: for body weight versus STZ treated mice / hepatic steatosis / liver damage (histology): co-treated 3 days
From the text: Eight-week-old Balb/c male mice were purchased from Koatech Co. (Pyeongtaek, Republic of Korea) and maintained in for 7 days in order to adapt to the environment. The experimental protocol was approved by the Animal Care and Use Committee of Korea Research Institute of Bioscience and Biotechnology Institution (KRIBB-AEC-17146) and performed in accordance with the National Institutes of Health Guidelines for the care and use of laboratory animals and with the Korean national laws for animal welfare. The mice were randomized initially into two experimental groups as follows: Non-treated group as a control; STZ treated group. STZ treated groups received an intraperitoneal injection of 200 mg/kg BW STZ, which was dissolved in citrate buffer (pH 4.5), while the animals belonging to the control group received vehicle injection. The next day following STZ administration, the induction of diabetes in all STZ-treated mice was confirmed the glucose level in blood by a glucometer (ACCU-CHEK, Roche diagnostics Inc., Seoul, Korea). All mice with blood glucose levels higher than 200 mg/dL in fasting state were considered acute diabetes. After the confirmation of the induction of diabetes, the mice of the experimental group were further randomized into three groups: STZ alone treated group; high dose of PLAG treated group; a low dose of PLAG treated group. PLAG was injected into mice for 3 days. Control and STZ alone treated groups were administrated orally to mice with the same PBS for 3 days. Following sacrifice, LPL activity was measured in plasma using a quantitative LPL activity assay kit (Cell Biolabs, Inc, San Diego, Calif.). Diluted samples and standards were loaded to the fluorescence microtiter plate, and LPL fluorometric substrate was added. After 30 minutes, the reaction stopped by stopping the solution. After 15 minutes, the sample fluorescence measured by a fluorescence microplate reader. The relative amounts of Apolipoprotein B48 (ApoB48) of portal vein plasma were evaluated by western blot analysis. […] The protein extracts were immunoblotted with the ApoB48 antibody (Abcam, MA, USA). Eight-week-old Balb/c male mice were purchased from Koatech Co. (Pyeongtaek, Republic of Korea) and maintained in for 7 days in order to adapt to the environment. The experimental protocol was approved by the Animal Care and Use Committee of Korea Research Institute of Bioscience and Biotechnology Institution (KRIBB-AEC-17146) and performed in accordance with the National Institutes of Health Guidelines for the care and use of laboratory animals and with the Korean national laws for animal welfare. The mice were randomized initially into 2 experimental groups as follows: Non-treated group as a control; STZ treated group. STZ treated groups received an intraperitoneal injection of 200 mg/kg BW STZ, which was dissolved in citrate buffer (pH 4.5), while the animals belonging to the control group received vehicle injection. The next day following STZ administration, the induction of diabetes in all STZ-treated mice was confirmed the glucose level in blood by a glucometer (ACCU-CHEK, Roche diagnostics Inc., Seoul, Korea). All mice with blood glucose levels higher than 200 mg/dL in fasting state were considered acute diabetes. After the confirmation of the induction of diabetes, the mice of the experimental group were further randomized into three groups: STZ alone treated group; high dose of PLAG treated group; a low dose of PLAG treated group. One day after STZ injection, mice were orally injected with PLAG for 3 days (FIG. 31A). The dosage and preparation of PLAG were determined according to previous reports. Control and STZ alone treated groups were administrated orally with the same PBS for 3 days. The experiments were carried out according to the methods mentioned above. […] Total RNA was isolated from the muscle of individual mice using TRIzol reagent (Favorgen Biotech, Taiwan). […]

| Structure (SMILES) | ROS production initiated [1] [min] | return to homeostatic levels of intracellular ROS [1] [min] | GPCR (ADORA2A) returns to its membrane [2] [min] | GPCR (ADORA2A) trafficking starts [2] [min] | STZ-induced empty fat vacuoles in liver (H&E) ([3]; 250 mg/kg vs 50 mg/kg) | plasma LPL activity ([3]; STZ 200 mg/kg, PLAG 3 days) | muscle TG content ([3]; STZ/PLAG treated group) | body weight versus STZ treated mice [3] | hepatic steatosis / liver damage (histology) [3] | ApoB48 level in portal vein blood ([3]; dose-dependent) |
| --- | --- | --- | --- | --- | --- | --- | --- | --- | --- | --- |
| CCCCC/C=C\C/C=C\CCCCCCCC(=O)OC(COC(C)=O)COC(=O)CCCCCCCCCCCCCCC (racemic) [PLAG, 1-palmitoyl-2-linoleoyl-3-acetylglycerol] | 15 | 60 | 10 | 2.5 | decreased STZ-induced empty fat vacuoles more effectively than 50 mg/kg | recovered | recovered | less body weight loss | attenuated | markedly reduced |
| CCCCC/C=C\C/C=C\CCCCCCCC(=O)OC(CO)COC(=O)CCCCCCCCCCCCCCC (stereo not drawn) [PLH, palmitic linoleic hydroxyl glycerol, reference compound] | – | – | – | – | – | – | – | no difference | not altered | – |
